Results from patent US20050148763A1, “Peg-binding pth or peg-binding pth derivative” (Chugai Seiyaku Kabushiki Kaisha, priority 2002, published 2005).

Columns and labels:
[1] = biological target: T1, rat PTH1 receptors (Rattus norvegicus, UniProt P25961); assay: in vitro ability to produce cAMP, EW29 cells; format: cell-based; settings: Table 2(3), n=2-3
T1 construct: expressed in transfected cells; host or cells: EW29 cells
T1 sequence (P25961 27-591): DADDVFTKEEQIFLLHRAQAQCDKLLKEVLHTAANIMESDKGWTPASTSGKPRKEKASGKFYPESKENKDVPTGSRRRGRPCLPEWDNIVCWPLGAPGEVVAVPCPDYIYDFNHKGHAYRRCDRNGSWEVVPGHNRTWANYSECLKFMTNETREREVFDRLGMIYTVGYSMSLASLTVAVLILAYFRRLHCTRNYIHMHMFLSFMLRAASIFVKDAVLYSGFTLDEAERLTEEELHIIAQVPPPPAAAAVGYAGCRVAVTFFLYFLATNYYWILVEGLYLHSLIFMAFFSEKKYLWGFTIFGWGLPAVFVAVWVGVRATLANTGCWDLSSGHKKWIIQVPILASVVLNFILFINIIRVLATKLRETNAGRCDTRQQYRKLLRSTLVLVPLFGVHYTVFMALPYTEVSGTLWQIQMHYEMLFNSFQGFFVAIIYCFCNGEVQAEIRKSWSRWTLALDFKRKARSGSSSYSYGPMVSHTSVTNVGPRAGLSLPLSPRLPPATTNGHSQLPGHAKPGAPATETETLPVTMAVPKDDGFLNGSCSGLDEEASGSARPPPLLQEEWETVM
Protocol: Each PEG-PTH sample was assayed for its ability to produce cAMP (indicative of the increasing effect of PTH on bone mass) as follows. […] These cells were seeded in 96-well plates at 1×10^5 cells/well and incubated overnight. […] After removing the reaction solution, the plates were placed on powdered dry ice to freeze the cells and then removed from the dry ice. The cells were thawed with 50 μL of 50 mM HCl and frozen again on dry ice. The level of intracellular cAMP was determined with a commercially available EIA kit (Biotrak cAMP EIA system, Amersham).

[2] = Pharmacokinetics in rats by intravenous route; format: in vivo; settings: rat, in vivo, 80 μg/mL at 1 mL/kg
Protocol: Each sample was adjusted to 80 μg/mL by dilution with 25 mmol/L citrate-phosphate buffer (pH 5.0) containing 100 mmol/L NaCl and 0.05 vol % Tween 20 to give a solution for administration. Male SD rats at 6 weeks of age (CLEA Japan, Inc.) were provided for this experiment. Intravenous injection was performed on rats having polyethylene tubes (SP-31, Natsume Seisakusho Co., Ltd.) inserted into the femoral artery and vein. The solutions thus prepared were each administered at a dose of 1 mL/kg through a polyethylene tube inserted into the femoral vein, and blood was collected through a polyethylene tube inserted into the femoral artery before administration and at 5, 15, 30 and 45 minutes as well as 1, 2, 4, 6, 8 and 24 hours after administration. Subcutaneous administration was performed on rats having polyethylene tubes inserted into the femoral artery. The solutions prepared above were each subcutaneously administered at a dose of 1 mL/kg to the dorsal neck region of the rats, and blood was collected in the same manner as used for intravenous injection. These blood samples were centrifuged to collect plasma and stored at −40° C. until assayed for PTH(1-34) or PEG-PTH(1-34) levels.
The level of PTH(1-34) or PEG-PTH(1-34) was determined by RIA analysis using a Rat PTH IRMA Kit (Immutopics). A Cobra Quantum Model 5005 gamma counter (Packard) was used to measure radioactivity for each sample. The plasma level of PTH(1-34) or PEG-PTH(1-34) was calculated from a calibration curve prepared using PTH(1-34) or PEG-PTH(1-34). The Winnonlin program Ver. 2.1 (Scientific Consulting Inc.) was used to analyze the time course of changes in the calculated plasma PTH(1-34) or PEG-PTH(1-34) levels (FIG. 3: by intravenous route; FIG. 4: by subcutaneous route) to calculate the following as pharmacokinetic parameters: time required to reach the maximum plasma level (Tmax); maximum plasma level (Cmax); area under the curve of plasma levels (AUC); plasma half-life (t1/2); total body clearance (Cltotal); mean residence time in the body (MRT); and bioavailability (BA). […]

[3] = Hypercalcemic effect of PEG-PTH(1-34) in normal male BDF1 mice; format: in vivo; settings: sc, hPTH(1-34) 50-500 nmol/kg, PEG-PTHs 150 nmol/kg
Protocol: 2 k and 5 k PEG-PTH(1-34) were also adjusted similarly to 30 nmol/mL (calculated as PTH) and allowed to stand on ice immediately before administration.
Male BDF1 mice at 5 weeks of age (Charles River Japan, Inc.) were measured for their body weight. Immediately before drug administration, blood was collected by orbital puncture into heparinized capillary tubes and measured for baseline levels of blood ionized calcium and pH using a Ca^2+/pH analyzer (Model 348/Bayer Medical Ltd.) to give the corrected level of ionized calcium at pH 7.4 for each sample. The mice received subcutaneous administration of each drug at a dose of 5 mL/kg. […] At 1, 3 and 6 hours after administration, blood was collected by orbital puncture to monitor the time course of corrected blood ionized calcium levels.

Molecule | Maximum cAMP response [1] | EC50 ([1]; cAMP production) | AUC ([2]; read-out: AUC) | clearance ([2]; read-out: Cltotal (converted)) | MRT ([2]; read-out: MRT) | half-life ([2]; read-out: t½ (converted)) | time of maximum increase in blood ionized calcium levels after administration [3]
2 k PEG-[Cys^35]-hPTH(1-35): [Cys^35]-PTH(1-35) conjugated with mPEG 2 k-MAL (2 kDa methoxy-PEG-maleimide) at the C-terminal cysteine (SVSEIQLMHNLGKHLNSMERVEWLRKKLQDVHNFC; Parathyroid hormone 2 kDa mPEG-maleimide at Cys35; UniProt P01270 32-66, looked up, variant V35C) | 52.2 ± 12.3 pmol/well | 2.2 nM | – | – | – | – | –
CC[C@H](C)[C@H](NC(=O)[C@H](CCC(=O)O)NC(=O)[C@H](CO)NC(=O)[C@@H](NC(=O)[C@@H](N)CO)C(C)C)C(=O)N[C@@H](CCC(N)=O)C(=O)N[C@@H](CC(C)C)C(=O)N[C@@H](CCSC)C(=O)N[C@@H](Cc1cnc[nH]1)C(=O)N[C@@H](CC(N)=O)C(=O)N[C@@H](CC(C)C)C(=O)NCC(=O)N[C@@H](CCCCN)C(=O)N[C@@H](Cc1cnc[nH]1)C(=O)N[C@@H](CC(C)C)C(=O)N[C@@H](CC(N)=O)C(=O)N[C@@H](CO)C(=O)N[C@@H](CCSC)C(=O)N[C@@H](CCC(=O)O)C(=O)N[C@@H](CCCN=C(N)N)C(=O)N[C@H](C(=O)N[C@@H](CCC(=O)O)C(=O)N[C@@H](Cc1c[nH]c2ccccc12)C(=O)N[C@@H](CC(C)C)C(=O)N[C@@H](CCCN=C(N)N)C(=O)N[C@@H](CCCCN)C(=O)N[C@@H](CCCCN)C(=O)N[C@@H](CC(C)C)C(=O)N[C@@H](CCC(N)=O)C(=O)N[C@@H](CC(=O)O)C(=O)N[C@H](C(=O)N[C@@H](Cc1cnc[nH]1)C(=O)N[C@@H](CC(N)=O)C(=O)N[C@@H](Cc1ccccc1)C(=O)O)C(C)C)C(C)C [hPTH(1-34), reference compound] | – | – | 21.7 ng·h/mL | 61.7 mL/min/kg | 12.7 min | 13.9 min | one
